Laboratory results from patent US7964720B2, “Method of making porphyrins” (North Carolina State University, priority 2007, dated 2011).

What was measured:
[1] = Source text: 4. Solubility. […] We compared the solubility of 1, Pd-1, Zn-1 and Mg-1 in common organic solvents (CH2Cl2, THF, MeOH, ethyl acetate, toluene).
[2] = background statement; cited from earlier work
[3] = Stability of the magnesium chelate in solution and on silica column chromatography; format: physicochemical
Method: Thus, refluxing a mixture of 2 (100 mM) in toluene containing DBU (10 equiv vs. 2) and MgBr2 (3 equiv) in the presence of air afforded Mg(II)porphine (Mg-1) in 41% yield. Note that no quinone oxidant is required. Mg(II)porphine was purified by filtration through an alumina column. No free base porphine was detected in the reaction mixture. […] Neither starting material nor macrocyclic byproducts were detected. Therefore we performed the purification of Mg-1 without column chromatography. The crude reaction mixture was concentrated. The resulting oily material was treated with THF, filtered (to remove the polymeric material and inorganic salt), and filtrate was concentrated. Subsequent washing with water (to remove an excess of DBU) and crystallization from ethanol/water afforded Mg-1 in satisfactory purity. […] Note that Mg(II)porphine (Mg-1) was previously prepared by metalation of 1.^2

Molecule	general trend in solubility [1]	solubility in common organic solvents [1]	solubility of the free base [2]	stability in solution ([3]; in solution)	behaviour upon silica column chromatography ([3]; silica column chromatography)
C1=Cc2cc3ccc(cc4nc(cc5ccc(cc1n2)[nH]5)C=C4)[nH]3 [compound 1, Porphine]	Pd-1<1<Zn-1<<Mg-1	poor solubility	extremely low solubility	–	–
Mg(II)porphine [Mg-1]	Pd-1<1<Zn-1<<Mg-1	sufficiently high	–	stable in solution	partial decomplexation
Pd(II)porphine [Pd-1]	Pd-1<1<Zn-1<<Mg-1	–	–	–	–
Zn(II)porphine [Zn-1]	Pd-1<1<Zn-1<<Mg-1	–	–	–	–
